Reference: US10766895B2 (Zhejiang Huahai Pharmaceutical Co., Ltd., priority 2015, dated 2020)

Key:
[1] = all of organic solvents; cited from earlier work
[2] = Comparative Example 1: heating palbociclib free base in n-butanol and anisole (method of WO2014128588A1); format: physicochemical; details: n-butanol (16 ml/g) and anisole (24 ml/g), heated to 95-100° C.
Description: The seed crystal of crystal form A was required to be added into the reaction system to obtain a crystal form A of palbociclib free base.

In the case of CC(=O)c1c(C)c2cnc(Nc3ccc(N4CCNCC4)cn3)nc2n(C2CCCC2)c1=O [palbociclib free base, 6-acetyl-8-cyclopentyl-5-methyl-2-[[5-(piperazine-1-yl)pyridine-2-yl]amino]-8H-pyrido[2,3-D]pyrimidine-7-ketone], the “Solubility in organic solvents” value [1] is listed as “very poor solubility” and the Solubility on heating [2] is listed as “remained insoluble”.
